The text below walks through data of US20100069319A1, “Mercaptopurine derivatives and uses thereof” (priority 2007, published 2010).

Each structure is given as a SMILES string. Read-outs that look alike come from different tables or passages of the source.

One data set concerns B-CLL cells. The settings on record: 48 h, read-out: calculated IC50 for allicin induced-apoptosis; cited from earlier work.
A further data set has as its system N87. Description: Anti-proliferative concentration IC50 (Table 2). It is filed as cell-based, human. The settings on record: N87, 16 h, tested at 0-200 μM, read-out: Anti-proferative concentration - IC50 (mean ± SE). The method, then:
(§1) Cell proliferation was determined by the XTT viability assay in 96-well plates, based on the reduction of tetrazolium salt to soluble formazan compounds by living cells. Cells (10,000-15,000 cells/well) were seeded in a 96-well plate. After 16 h incubation with various concentrations of 6-MP, 6-MPR and their S-allylthio-derivatives, 50 μl of XTT/PMS mixture (50 μM PMS, 0.1% XTT in medium) was added onto the cells. After an incubation period of 3-4 h at 37° C. the absorbance of the samples was measured in an ELISA Reader at 450 nm. SDS (1%, 10 μl/well) was added to reference wells before adding the XTT/PMS solution.
(§2) The results of viability and proliferation were expressed as mean values±SD (n=3-6). For each cell line, the results were analyzed using two-way analysis of variance (ANOVA) followed by Bonferroni's posttest for the factors of the drugs used and their various concentrations, considering p<0.05 as significant. IC50 values (mean±SEM) were obtained from the linear range of the viability curve versus drug concentration (XTT assay).
(§3) In particular, cell in suspension, namely, Daudi, HL-60, U937, Molt-4, Jurkat and B-CLL, were tested at prodrug concentration of 0-100 μM, and monolayer cells, namely, Hela HtTA-1, MDR HT-29 and N87, were tested at prodrug concentration of 0-200 μM. in both cases, cell viability was determined by trypan blue dye exclusion assay. Data are presented in Table 2 hereinbelow for 6MP derivatives-treated for 16 h.

The next data set deals with MDR HT-29. Description: Anti-proliferative concentration IC50 (Table 2). The class given is cell-based, human. The settings on record: MDR HT-29, 16 h, tested at 0-200 μM, read-out: Anti-proferative concentration - IC50 (mean ± SE). The method, then: as §1, §2, §3
The next data set relates to Hela. Description: Anti-proliferative concentration IC50 (Table 2). It is filed as cell-based, human. The settings on record: 16 h, tested at 0-200 μM, read-out: Anti-proferative concentration - IC50 (mean ± SE). The protocol: as §1, §2, §3
The next data set relates to U937. Description: Anti-proliferative concentration IC50 (Table 2). The settings on record: U937, 16 h, tested at 0-100 μM, read-out: Anti-proferative concentration - IC50 (mean ± SE). It is filed as cell-based, human. The method, then: as §1, §2, §3
The next data set relates to HL-60. Description: Anti-proliferative concentration IC50 (Table 2). The class given is cell-based, human. The conditions noted are these: HL-60, 16 h, tested at 0-100 μM, read-out: Anti-proferative concentration - IC50 (mean ± SE). The method, then: as §1, §2, §3
In a further data set the test system is Daudi. Description: Anti-proliferative concentration IC50 (Table 2). The class given is cell-based. The conditions noted are these: 16 h, tested at 0-100 μM, read-out: Anti-proferative concentration - IC50 (mean ± SE). The protocol:
as §1, §2, §3

Another data set has as its system N87 cells. As to the kind of experiment: XTT cell proliferation assay. The settings on record: 16 h. It is filed as cell-based, human. The protocol: as §1
(§4) The inhibitory effects of the various prodrugs on Daudi leukemia cell and on monolayer N87 cells were compared. […] XTT was added to the wells for 3 h at 37° C. Cell viability was monitored using an ELISA reader at 450 nm, as described in Materials and Methods.

The test system of another data set is Jurkat. Description: Anti-proliferative concentration IC50 (Table 2). It is filed as cell-based, human. The settings on record: 16 h, tested at 0-100 μM, read-out: Anti-proferative concentration - IC50 (mean ± SE). The method, then:
as §1, §2, §3

A further data set relates to Daudi cells. Description: XTT cell proliferation assay. The class given is cell-based. The settings on record: 16 h. The protocol: as §1, §4
For the next data set, the system named is Molt-4. Description: Anti-proliferative concentration IC50 (Table 2). It is filed as cell-based. The conditions noted are these: Molt-4, 16 h, tested at 0-100 μM, read-out: Anti-proferative concentration - IC50 (mean ± SE). The protocol: as §1, §2, §3
For data set [1], the system named is human peripheral blood mononuclear cells (PBMCs). The conditions noted are these: after 4 days of treatment, read-out: IC50, T-cell mitogen-induced blastogenesis; cited from earlier work.

Turning to `C=CCS[S+]([O-])CC=C` (stereo not drawn) [Allicin, reference compound], the IC50 in the data set with B-CLL cells was 0.02 µM; in the data set on N87 (Homo sapiens) it was 16.8 ± 3.3 µM; with MDR HT-29 (Homo sapiens), 83.8 ± 7.8 µM; in the data set with Hela (Homo sapiens) it was 104 ± 10.2 µM; in the data set on U937 (Homo sapiens, U-937), 19.7 ± 2.1 µM; in the data set on HL-60 (Homo sapiens) it was 5.5 ± 0.6 µM. For the same molecule, the IC50 in the data set on Daudi (Homo sapiens) was 35.3 ± 4.2 µM.

Turning to `C=CCSSc1ncnc2c1ncn2[C@@H]1O[C@H](CO)[C@@H](O)[C@H]1O` [SA-6MPR, S-allylthio-6-mercaptopurine 9-riboside], the “residual proliferation / viability” value in the data set on N87 cells (N87, 50 μM) is “about 70%”. Also, the residual viability with N87 cells (N87, 100 μM) was approximately 55%. Moreover, the “proliferation” value in the data set with N87 cells (N87, 150 μM) is reported as “complete loss of proliferation”. In addition, the IC50 was 120 ± 15.6 µM in the data set with N87; more than 200 µM in the data set with MDR HT-29; 69.1 ± 7.5 µM in the data set with Jurkat; more than 200 µM with Hela; 113 ± 10.9 µM in the data set with U937; 86.1 ± 9.5 µM in the data set with HL-60. For the same molecule, the IC50 in the data set with Daudi turned out to be 70.8 ± 7.8 µM; in the data set on Molt-4, 16.9 ± 2.3 µM. The residual proliferation in the data set on Daudi cells (50 μM) is 60%; with Daudi cells (100 μM), 25%.

`Cn1cnc([N+](=O)[O-])c1Sc1ncnc2nc[nH]c12` [AZ, azathioprine]: in data set [1], the IC50 is 0.23 ± 0.231 µM.

`OC[C@H]1O[C@@H](n2cnc3c(S)ncnc32)[C@H](O)[C@@H]1O` [6-MPR, 6-mercaptopurine riboside, reference compound]: the “cell proliferation” value is recorded as “no significant loss of cell proliferation” in the data set with N87 cells (N87, 0-100 μM) and “no significant loss of cell proliferation” with Daudi cells (0-100 μM). Also, in the data set with N87 cells (N87, 150 μM), the “proliferation (residual)” value is approximately 75%. The IC50 was 99 ± 11.9 µM in the data set on Jurkat (Homo sapiens); more than 200 µM in the data set on U937 (Homo sapiens, U-937); 24.8 ± 2.5 µM with Molt-4 (Homo sapiens).
